Reference: ChEMBL document CHEMBL5696441 (Nat Chem Biol, 2011)

Experiments:
[1] = system: Tyrosine-protein kinase ABL1 (Homo sapiens), P00519 [E255K]; assay: Inhibition of ABL1 E255K mutant (unknown origin) assessed as remaining activity at 1 uM by Kinome scan method relative to control
[2] = target: Cyclin-dependent kinase 11A (Homo sapiens) (UniProt Q9UQ88); assay: Inhibition of CDC2L2 (unknown origin) assessed as remaining activity at 1 uM by Kinome scan method relative to control
[3] = target: Ephrin type-A receptor 2 (Homo sapiens) (UniProt P29317); assay: Inhibition of EPHA2 (unknown origin) assessed as remaining activity at 1 uM by Kinome scan method relative to control
Sequence of Ephrin type-A receptor 2 (Homo sapiens) (P29317 whole entry): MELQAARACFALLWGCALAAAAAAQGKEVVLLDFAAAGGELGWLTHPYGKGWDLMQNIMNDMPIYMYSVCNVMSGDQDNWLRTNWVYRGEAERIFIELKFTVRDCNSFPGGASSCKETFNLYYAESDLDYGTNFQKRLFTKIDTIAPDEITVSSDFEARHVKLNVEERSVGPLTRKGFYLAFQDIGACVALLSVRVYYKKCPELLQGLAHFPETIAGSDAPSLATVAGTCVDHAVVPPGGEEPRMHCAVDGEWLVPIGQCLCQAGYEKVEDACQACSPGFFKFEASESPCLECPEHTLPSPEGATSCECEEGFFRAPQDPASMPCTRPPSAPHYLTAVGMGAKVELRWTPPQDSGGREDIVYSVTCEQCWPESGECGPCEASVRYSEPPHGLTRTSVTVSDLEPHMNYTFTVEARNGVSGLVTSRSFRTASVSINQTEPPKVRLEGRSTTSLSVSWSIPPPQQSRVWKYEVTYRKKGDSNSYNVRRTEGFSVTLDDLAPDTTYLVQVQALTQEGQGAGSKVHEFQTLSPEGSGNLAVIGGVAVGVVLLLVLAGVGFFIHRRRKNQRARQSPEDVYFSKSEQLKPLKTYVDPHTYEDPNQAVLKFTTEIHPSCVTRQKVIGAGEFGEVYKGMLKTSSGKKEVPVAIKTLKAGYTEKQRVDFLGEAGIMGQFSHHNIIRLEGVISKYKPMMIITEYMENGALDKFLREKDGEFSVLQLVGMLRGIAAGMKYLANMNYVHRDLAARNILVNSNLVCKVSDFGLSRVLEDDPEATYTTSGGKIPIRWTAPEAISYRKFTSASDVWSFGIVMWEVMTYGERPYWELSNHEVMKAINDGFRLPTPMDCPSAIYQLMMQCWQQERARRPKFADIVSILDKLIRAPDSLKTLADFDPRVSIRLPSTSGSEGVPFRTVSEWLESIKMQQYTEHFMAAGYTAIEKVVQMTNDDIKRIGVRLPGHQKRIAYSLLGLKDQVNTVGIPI

[4] = target: Fibroblast growth factor receptor 3 (Homo sapiens) (UniProt P22607); assay: Inhibition of FGFR3 (unknown origin) assessed as remaining activity at 1 uM by Kinome scan method relative to control
Sequence of Fibroblast growth factor receptor 3 (Homo sapiens) (P22607 23-806 limits assumed): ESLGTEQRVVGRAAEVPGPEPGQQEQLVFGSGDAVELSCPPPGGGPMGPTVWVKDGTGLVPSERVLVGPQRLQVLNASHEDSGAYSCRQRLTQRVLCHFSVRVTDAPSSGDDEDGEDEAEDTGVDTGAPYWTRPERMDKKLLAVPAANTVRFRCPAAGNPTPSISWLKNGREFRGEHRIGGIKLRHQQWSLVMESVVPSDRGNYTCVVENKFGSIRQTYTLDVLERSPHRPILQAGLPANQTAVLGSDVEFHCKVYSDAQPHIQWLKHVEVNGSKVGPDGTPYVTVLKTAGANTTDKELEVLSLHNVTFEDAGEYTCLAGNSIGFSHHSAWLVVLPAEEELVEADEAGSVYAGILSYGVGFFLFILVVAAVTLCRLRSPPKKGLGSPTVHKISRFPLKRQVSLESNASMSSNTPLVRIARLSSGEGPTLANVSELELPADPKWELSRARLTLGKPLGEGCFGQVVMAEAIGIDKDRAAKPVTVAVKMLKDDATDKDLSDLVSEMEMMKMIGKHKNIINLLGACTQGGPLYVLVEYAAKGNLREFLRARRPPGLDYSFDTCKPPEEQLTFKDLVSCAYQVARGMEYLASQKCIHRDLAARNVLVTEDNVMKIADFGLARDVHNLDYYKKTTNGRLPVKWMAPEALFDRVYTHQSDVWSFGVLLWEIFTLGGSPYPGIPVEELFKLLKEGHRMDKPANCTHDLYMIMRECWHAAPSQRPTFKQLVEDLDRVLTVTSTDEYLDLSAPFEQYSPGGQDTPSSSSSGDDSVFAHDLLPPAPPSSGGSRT

[5] = target: Vascular endothelial growth factor receptor 1 (Homo sapiens) (UniProt P17948); assay: Inhibition of FLT1 (unknown origin) assessed as remaining activity at 1 uM by Kinome scan method relative to control
[6] = target: T1, Homeodomain-interacting protein kinase 4 (Homo sapiens) (UniProt Q8NE63); assay: Inhibition of HIPK4 (unknown origin) assessed as remaining activity at 1 uM by Kinome scan method relative to control
T1 sequence (whole entry): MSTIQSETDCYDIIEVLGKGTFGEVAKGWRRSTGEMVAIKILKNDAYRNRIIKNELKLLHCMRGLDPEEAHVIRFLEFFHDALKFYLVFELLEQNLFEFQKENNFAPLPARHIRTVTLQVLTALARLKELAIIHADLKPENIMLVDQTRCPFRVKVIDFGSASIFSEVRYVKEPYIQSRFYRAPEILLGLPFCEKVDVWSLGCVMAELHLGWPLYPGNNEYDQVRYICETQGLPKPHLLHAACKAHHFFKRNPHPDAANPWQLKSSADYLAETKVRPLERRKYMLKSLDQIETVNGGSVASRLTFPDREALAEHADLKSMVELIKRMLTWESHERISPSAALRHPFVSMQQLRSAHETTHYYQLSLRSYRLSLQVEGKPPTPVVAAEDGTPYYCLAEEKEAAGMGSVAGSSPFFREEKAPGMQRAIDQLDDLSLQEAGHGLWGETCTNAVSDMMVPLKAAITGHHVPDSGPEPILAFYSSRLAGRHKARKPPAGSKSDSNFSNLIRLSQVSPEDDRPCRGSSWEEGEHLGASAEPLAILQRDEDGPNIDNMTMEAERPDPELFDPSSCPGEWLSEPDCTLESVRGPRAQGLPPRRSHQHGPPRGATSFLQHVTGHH

[7] = target: Mitogen-activated protein kinase kinase kinase kinase 4 (Homo sapiens) (UniProt O95819); assay: Inhibition of MAP4K4 (unknown origin) assessed as remaining activity at 1 uM by Kinome scan method relative to control
Sequence of Mitogen-activated protein kinase kinase kinase kinase 4 (Homo sapiens) (O95819 2-1239 limits assumed): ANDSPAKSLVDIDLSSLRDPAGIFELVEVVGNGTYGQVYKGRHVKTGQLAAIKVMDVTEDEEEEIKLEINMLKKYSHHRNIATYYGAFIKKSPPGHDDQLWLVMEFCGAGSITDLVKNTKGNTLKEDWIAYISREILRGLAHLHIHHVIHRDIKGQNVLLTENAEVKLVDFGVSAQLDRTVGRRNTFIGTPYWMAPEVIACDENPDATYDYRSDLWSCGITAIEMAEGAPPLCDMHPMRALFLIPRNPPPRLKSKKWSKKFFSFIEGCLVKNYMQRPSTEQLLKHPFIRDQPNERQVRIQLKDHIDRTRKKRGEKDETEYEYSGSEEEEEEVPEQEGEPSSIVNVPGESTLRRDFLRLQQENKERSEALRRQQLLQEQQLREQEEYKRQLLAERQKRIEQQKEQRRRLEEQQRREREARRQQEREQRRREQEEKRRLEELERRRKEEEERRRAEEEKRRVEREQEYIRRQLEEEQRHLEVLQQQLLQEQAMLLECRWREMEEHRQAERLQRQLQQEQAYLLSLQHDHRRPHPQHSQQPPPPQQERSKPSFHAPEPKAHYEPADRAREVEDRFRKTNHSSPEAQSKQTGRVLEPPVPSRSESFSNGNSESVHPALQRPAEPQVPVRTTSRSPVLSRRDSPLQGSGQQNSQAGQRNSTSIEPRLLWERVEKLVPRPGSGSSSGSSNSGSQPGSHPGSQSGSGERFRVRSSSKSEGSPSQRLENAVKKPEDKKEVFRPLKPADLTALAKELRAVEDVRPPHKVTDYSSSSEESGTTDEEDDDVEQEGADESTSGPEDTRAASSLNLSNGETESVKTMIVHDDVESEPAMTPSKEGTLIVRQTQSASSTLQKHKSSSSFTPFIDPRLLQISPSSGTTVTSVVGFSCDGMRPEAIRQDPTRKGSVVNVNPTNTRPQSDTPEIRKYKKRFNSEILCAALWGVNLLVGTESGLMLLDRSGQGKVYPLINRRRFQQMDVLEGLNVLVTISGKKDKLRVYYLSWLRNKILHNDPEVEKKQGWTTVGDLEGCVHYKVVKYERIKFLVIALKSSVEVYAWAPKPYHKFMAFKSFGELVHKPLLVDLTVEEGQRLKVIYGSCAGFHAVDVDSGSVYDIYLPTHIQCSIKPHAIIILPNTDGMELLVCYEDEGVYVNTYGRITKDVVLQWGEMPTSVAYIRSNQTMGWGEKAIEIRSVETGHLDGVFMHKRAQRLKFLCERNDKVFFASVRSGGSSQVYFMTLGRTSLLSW

[8] = target: Serine/threonine-protein kinase PLK1 (Homo sapiens) (UniProt P53350); assay: Inhibition of PLK1 (unknown origin) assessed as remaining activity at 1 uM by Kinome scan method relative to control
Sequence of Serine/threonine-protein kinase PLK1 (Homo sapiens) (P53350 whole entry): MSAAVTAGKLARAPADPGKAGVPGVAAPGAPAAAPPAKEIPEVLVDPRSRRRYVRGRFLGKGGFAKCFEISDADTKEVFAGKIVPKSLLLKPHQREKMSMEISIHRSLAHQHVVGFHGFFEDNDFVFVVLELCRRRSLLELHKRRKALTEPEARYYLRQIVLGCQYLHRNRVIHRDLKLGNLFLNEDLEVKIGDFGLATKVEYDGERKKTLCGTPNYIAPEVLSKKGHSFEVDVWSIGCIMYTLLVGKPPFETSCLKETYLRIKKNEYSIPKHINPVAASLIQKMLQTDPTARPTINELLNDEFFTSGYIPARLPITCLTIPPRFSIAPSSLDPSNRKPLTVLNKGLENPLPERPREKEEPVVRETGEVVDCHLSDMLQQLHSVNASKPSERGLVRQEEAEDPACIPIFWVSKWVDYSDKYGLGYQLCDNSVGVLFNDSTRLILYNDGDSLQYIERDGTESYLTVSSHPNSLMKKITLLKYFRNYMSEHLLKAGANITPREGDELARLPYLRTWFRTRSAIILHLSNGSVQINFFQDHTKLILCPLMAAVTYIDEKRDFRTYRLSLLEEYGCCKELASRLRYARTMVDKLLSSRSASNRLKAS

[9] = target: T2, cGMP-dependent protein kinase 2 (Homo sapiens) (UniProt Q13237); assay: Inhibition of PRKG2 (unknown origin) assessed as remaining activity at 1 uM by Kinome scan method relative to control
T2 sequence (whole entry): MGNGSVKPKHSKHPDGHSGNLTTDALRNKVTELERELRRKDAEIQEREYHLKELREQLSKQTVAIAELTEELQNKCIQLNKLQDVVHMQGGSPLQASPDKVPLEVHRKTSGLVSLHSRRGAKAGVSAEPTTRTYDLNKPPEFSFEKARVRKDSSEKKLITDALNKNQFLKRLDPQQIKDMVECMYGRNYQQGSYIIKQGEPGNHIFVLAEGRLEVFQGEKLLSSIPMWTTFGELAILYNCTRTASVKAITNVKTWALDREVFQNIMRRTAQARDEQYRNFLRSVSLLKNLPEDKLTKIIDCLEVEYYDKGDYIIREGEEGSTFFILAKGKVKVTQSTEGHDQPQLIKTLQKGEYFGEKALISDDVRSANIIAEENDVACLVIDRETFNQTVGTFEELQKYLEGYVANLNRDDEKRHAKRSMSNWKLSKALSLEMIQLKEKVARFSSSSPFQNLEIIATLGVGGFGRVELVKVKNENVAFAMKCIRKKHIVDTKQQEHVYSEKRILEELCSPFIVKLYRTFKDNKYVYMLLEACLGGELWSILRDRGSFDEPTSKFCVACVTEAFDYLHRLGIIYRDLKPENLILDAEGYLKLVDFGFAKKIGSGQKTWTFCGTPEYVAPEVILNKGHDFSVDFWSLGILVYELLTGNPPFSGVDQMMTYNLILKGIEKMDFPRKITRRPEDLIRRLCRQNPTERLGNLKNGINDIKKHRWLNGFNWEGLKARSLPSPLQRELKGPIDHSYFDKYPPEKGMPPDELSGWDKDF

[10] = system: Fibroblast growth factor receptor 3 (Homo sapiens), P22607 [G697C]; assay: Inhibition of FGFR3 G697C mutant (unknown origin) assessed as remaining activity at 1 uM by Kinome scan method relative to control
[11] = target: Serine/threonine-protein kinase Chk2 (Homo sapiens) (UniProt O96017); assay: Inhibition of human CHK2 assessed as residual activity at 1 uM using bio-4xCHKT as substrate in presence of 33P-ATP by ProQinase assay relative to control
[12] = target: Casein kinase I isoform delta (Homo sapiens) (UniProt P48730); assay: Inhibition of human CK1delta assessed as residual activity at 1 uM using casein as substrate in presence of 33P-ATP by ProQinase assay relative to control
[13] = target: Eukaryotic elongation factor 2 kinase (Homo sapiens) (UniProt O00418); assay: Inhibition of human EEF2K assessed as residual activity at 1 uM using RBER-GSK3 as substrate in presence of 33P-ATP by ProQinase assay relative to control
[14] = target: Receptor tyrosine-protein kinase erbB-4 (Homo sapiens) (UniProt Q15303); assay: Inhibition of human ERBB4 assessed as residual activity at 1 uM using polyEy as substrate in presence of 33P-ATP by ProQinase assay relative to control
[15] = target: Mitogen-activated protein kinase 3 (Homo sapiens) (UniProt P27361); assay: Inhibition of human ERK1 assessed as residual activity at 1 uM using RBER-CHKtide as substrate in presence of 33P-ATP by ProQinase assay relative to control
Sequence of Mitogen-activated protein kinase 3 (Homo sapiens) (P27361 whole entry): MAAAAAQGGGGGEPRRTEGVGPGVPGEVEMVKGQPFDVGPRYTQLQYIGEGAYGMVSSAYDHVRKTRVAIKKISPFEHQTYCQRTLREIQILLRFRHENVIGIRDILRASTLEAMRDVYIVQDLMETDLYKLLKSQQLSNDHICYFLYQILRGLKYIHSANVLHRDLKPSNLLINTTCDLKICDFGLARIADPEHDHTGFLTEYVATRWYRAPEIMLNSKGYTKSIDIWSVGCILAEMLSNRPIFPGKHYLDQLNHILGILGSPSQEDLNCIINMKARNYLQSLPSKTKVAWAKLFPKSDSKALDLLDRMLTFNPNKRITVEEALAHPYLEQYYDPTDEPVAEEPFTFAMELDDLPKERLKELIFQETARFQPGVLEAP

[16] = target: Serine/threonine-protein kinase pim-2 (Homo sapiens) (UniProt Q9P1W9); assay: Inhibition of human PIM2 assessed as residual activity at 1 uM using RBER-GSK3(14-27) as substrate in presence of 33P-ATP by ProQinase assay relative to control
Sequence of Serine/threonine-protein kinase pim-2 (Homo sapiens) (Q9P1W9 whole entry, looked up): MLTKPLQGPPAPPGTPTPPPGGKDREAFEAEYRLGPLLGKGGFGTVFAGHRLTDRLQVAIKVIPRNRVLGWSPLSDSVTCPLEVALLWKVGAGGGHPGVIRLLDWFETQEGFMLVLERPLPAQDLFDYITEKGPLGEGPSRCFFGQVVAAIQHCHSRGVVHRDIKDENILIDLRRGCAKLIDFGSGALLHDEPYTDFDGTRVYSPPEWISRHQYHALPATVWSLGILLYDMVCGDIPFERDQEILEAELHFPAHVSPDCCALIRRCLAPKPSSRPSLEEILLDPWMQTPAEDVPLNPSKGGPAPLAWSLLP

[17] = target: Protein-tyrosine kinase 2-beta (Homo sapiens) (UniProt Q14289); assay: Inhibition of human PYK2 assessed as residual activity at 1 uM using polyEY as substrate in presence of 33P-ATP by ProQinase assay relative to control

Sequence of Cyclin-dependent kinase 11A (Homo sapiens) (Q9UQ88 whole entry): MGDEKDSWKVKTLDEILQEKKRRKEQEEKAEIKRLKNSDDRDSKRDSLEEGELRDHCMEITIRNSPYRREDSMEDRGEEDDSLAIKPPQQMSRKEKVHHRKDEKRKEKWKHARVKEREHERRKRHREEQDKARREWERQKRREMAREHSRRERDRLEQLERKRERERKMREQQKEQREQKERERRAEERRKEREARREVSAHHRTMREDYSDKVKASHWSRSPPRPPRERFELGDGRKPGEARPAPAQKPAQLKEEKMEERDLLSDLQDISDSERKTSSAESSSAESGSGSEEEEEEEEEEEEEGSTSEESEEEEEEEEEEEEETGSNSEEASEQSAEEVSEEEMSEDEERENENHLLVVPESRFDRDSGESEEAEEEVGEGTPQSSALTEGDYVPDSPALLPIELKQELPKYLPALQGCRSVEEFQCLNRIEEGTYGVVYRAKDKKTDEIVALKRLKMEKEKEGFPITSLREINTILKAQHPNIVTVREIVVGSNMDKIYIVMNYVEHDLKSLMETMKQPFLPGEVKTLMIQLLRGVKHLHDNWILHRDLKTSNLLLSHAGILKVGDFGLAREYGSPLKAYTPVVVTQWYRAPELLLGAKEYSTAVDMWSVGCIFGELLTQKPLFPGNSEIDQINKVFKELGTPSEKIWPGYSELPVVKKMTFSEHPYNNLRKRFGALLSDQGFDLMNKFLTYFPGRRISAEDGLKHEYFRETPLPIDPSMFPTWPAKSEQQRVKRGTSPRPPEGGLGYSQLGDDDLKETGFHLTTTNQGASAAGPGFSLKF

Structure (SMILES) | Activity [1] [%] | Activity [2] [%] | Activity [3] [%] | Activity [4] [%] | Activity [5] [%] | Activity [6] [%] | Activity [7] [%] | Activity [8] [%] | Activity [9] [%] | Activity [10] [%] | Activity [11] [%] | Activity [12] [%] | Activity [13] [%] | Activity [14] [%] | Activity [15] [%] | Activity [16] [%] | Activity [17] [%]
Nc1ccccc1Nc1ccc2c(c1)CCc1ccccc1C2=O | 81 | 92 | 93 | 77 | 85 | 97 | 94 | 93 | 91 |  |  |  |  |  |  |  | 
O=C1c2ccc(Nc3ccc(F)cc3F)cc2CCc2ccc(OC[C@H](O)CO)cc21 [Skepinone-L] | 96 | 93 | 92 | 95 | 82 | 100 | 100 | 88 | 100 | 87 | 89 | 98 | 88 | 106 | 99 | 97 | 102
